In patent US9914730B2, “Azaquinazoline inhibitors of Atypical protein Kinase C” (Ignyta, Inc., priority 2012, dated 2018) one finds IC50 data, which are given here for 28 compounds.

What is called IC50 is the midpoint of a concentration-inhibition curve.

Where a name gives a salt, the structure may show the parent alone. Bounds are passed on as bounds.

This test addresses T1, full-length human PKCι (Homo sapiens, UniProt P41743).
T1 construct: Recombinant, full-length human PKCι expressed in Sf21 insect cells is also commercially available; purchased; host or cells: Sf21 insect cells
T1 sequence (P41743 1-596): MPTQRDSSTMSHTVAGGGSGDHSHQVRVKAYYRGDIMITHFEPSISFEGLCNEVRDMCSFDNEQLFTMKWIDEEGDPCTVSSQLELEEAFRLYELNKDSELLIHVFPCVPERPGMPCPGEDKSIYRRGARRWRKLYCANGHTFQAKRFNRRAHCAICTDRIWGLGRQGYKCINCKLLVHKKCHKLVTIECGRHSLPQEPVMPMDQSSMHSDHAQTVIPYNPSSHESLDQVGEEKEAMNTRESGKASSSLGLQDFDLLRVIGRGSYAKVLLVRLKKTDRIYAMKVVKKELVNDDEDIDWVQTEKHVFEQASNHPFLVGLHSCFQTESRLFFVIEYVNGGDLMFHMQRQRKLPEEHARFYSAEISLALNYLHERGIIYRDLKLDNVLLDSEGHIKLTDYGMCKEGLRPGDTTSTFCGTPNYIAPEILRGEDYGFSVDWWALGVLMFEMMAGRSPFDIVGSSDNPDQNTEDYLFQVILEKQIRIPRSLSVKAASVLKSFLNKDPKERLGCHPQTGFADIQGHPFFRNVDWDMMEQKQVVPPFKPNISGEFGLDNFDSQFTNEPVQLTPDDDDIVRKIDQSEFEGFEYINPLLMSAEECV
As to the kind of experiment: PKCι IC50 IMAP assay, full-length PKCι at 150 μM ATP. The class given is biochemical. The following applies: read-out: IC50 in IMAP assay against full length PKCi at 150 μM ATP. A digest of the protocol: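 Dose-response IC50 values come from IMAP fluorescence polarisation after 60 min room-temperature turnover of 100 nM FAM peptide by ~15 pM insect-cell-expressed full-length PKCι at 150 μM ATP (5× KM^APP), normalised to no-compound and no-enzyme controls.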

Take `Cc1cc2c(-c3nc(N4CCNCC4)c4c(C5CC5)cncc4n3)ccnc2[nH]1` [Example 1217, 5-Cyclopropyl-2-(2-methyl-1H-pyrrolo[2,3-b]pyridin-4-yl)-4-piperazin-1-yl-pyrido[3,4-d]pyrimidine]: the 50% inhibitory concentration (IC50) is under 0.1 µM.

`NC(=O)c1ccc(Nc2cc(-c3nc(N4CCNCC4)c4c(C5CC5)cncc4n3)ccn2)cc1` [Example 742, 4-[4-(5-Cyclopropyl-4-piperazin-1-yl-pyrido[3,4-d]pyrimidin-2-yl)-pyridin-2-ylamino]-benzamide]: the IC50 is under 0.1 µM.

Regarding `COc1cncc2nc(-c3ccncc3)nc(NC[C@@H](N)Cc3ccccc3)c12` [Example 9, N-[(2S)-2-amino-3-phenylpropyl]-5-methoxy-2-(pyridin-4-yl)pyrido[3,4-d]-pyrimidin-4-amine], the IC50 was under 0.1 µM.

As to `CNC(=O)C1CCN(c2nc(-c3ccnc(Nc4c(F)cccc4F)c3)nc3cncc(C4CC4)c23)C1` (stereo not shown) [Example 726, 1-{5-Cyclopropyl-2-[2-(2,6-difluoro-phenylamino)-pyridin-4-yl]-pyrido[3,4-d]pyrimidin-4-yl}-pyrrolidine-3-carboxylic acid methylamide], the half-maximal inhibitory concentration (IC50) is 0.1 to 1 µM.

Regarding `c1ccc(C2(c3cc4c(-c5nc(N6CCNCC6)c6c(C7CC7)cncc6n5)ccnc4[nH]3)CCC2)cc1` [Example 2064, 5-Cyclopropyl-2-[2-(1-phenyl-cyclobutyl)-1H-pyrrolo[2,3-b]pyridin-4-yl]-4-piperazin-1-yl-pyrido[3,4-d]pyrimidine], the IC50 was under 0.1 µM.

On to `COc1cncc2nc(-c3ccnc(Nc4ccc5c(C)n(C)nc5c4)c3)nc(N3CCNCC3)c12` [Example 490, (2,3-Dimethyl-2H-indazol-6-yl)-[4-(5-methoxy-4-piperazin-1-yl-pyrido[3,4-d]pyrimidin-2-yl)-pyridin-2-yl]-amine], for which the 50% inhibitory concentration (IC50) is under 0.1 µM.

Regarding `c1ccc2c(c1)CCC(Nc1cc(-c3nc(N4CCNCC4)c4c(C5CC5)cncc4n3)ccn1)C2` (stereo not shown) [Example 2137, [4-(5-Cyclopropyl-4-piperazin-1-yl-pyrido[3,4-d]pyrimidin-2-yl)-pyridin-2-yl]-(1,2,3,4-tetrahydro-naphthalen-2-yl)-amine], the IC50 is under 0.1 µM.

Consider `FC(F)(F)c1cc2c(-c3nc(N4CCOCC4)c4c(C5CC5)cncc4n3)ccnc2[nH]1` [Example 1227, 5-Cyclopropyl-4-morpholin-4-yl-2-(2-trifluoromethyl-1H-pyrrolo[2,3-b]pyridin-4-yl)-pyrido[3,4-d]pyrimidine], for which the IC50 was in the range of 10 to 40 µM.

Regarding `Brc1cncc2nc(-c3ccncc3)nc(N3CCNCC3)c12` [Example 133, 1-[5-bromo-2-(pyridin-4-yl)pyrido[3,4-d]pyrimidin-4-yl]piperazine], the IC50 was under 0.1 µM.

Regarding `FC(F)(F)c1ccnc(Nc2cc(-c3nc(N4CCNCC4)c4c(Cl)cncc4n3)ccn2)c1` [Example 259, [4-(5-Chloro-4-piperazin-1-yl-pyrido[3,4-d]pyrimidin-2-yl)-pyridin-2-yl]-(4-trifluoromethyl-pyridin-2-yl)-amine], the IC50 was under 0.1 µM.

Consider `CNCCNC(=O)C1CCN(c2nc(-c3ccnc(Nc4c(F)cccc4F)c3)nc3cncc(C4CC4)c23)CC1` [Example 744, 1-{5-Cyclopropyl-2-[2-(2,6-difluoro-phenylamino)-pyridin-4-yl]-pyrido[3,4-d]pyrimidin-4-yl}-piperidine-4-carboxylic acid (2-methylamino-ethyl)-amide], for which the IC50 is under 0.1 µM.

In the case of `COc1cccc(-c2nccc3c(NC[C@@H](N)Cc4ccccc4)nc(-c4ccncc4)nc23)c1` [Example 94, N-[(2S)-2-amino-3-phenylpropyl]-8-(3-methoxy-phenyl)-2-(pyridin-4-yl)-pyrido[3,4-d]-pyrimidin-4-amine], the half-maximal inhibitory concentration (IC50) is 0.1 to 1 µM.

As for `COC[C@H]1CN(c2nc(-c3ccnc4[nH]ccc34)nc3cncc(OC)c23)CCN1` [Example 1205, 5-Methoxy-4-((R)-3-methoxymethyl-piperazin-1-yl)-2-(1H-pyrrolo[2,3-b]pyridin-4-yl)-pyrido[3,4-d]pyrimidine], the IC50 lay in the range of 0.1 to 1 µM.

As for `c1ccc2c(c1)[nH]c1nccc(-c3nc(N4CCNCC4)c4c(C5CC5)cncc4n3)c12` [Example 1253, 4-(5-Cyclopropyl-4-piperazin-1-yl-pyrido[3,4-d]pyrimidin-2-yl)-9H-pyrido[2,3-b]indole trifluoroacetic acid salt], the IC50 was under 0.1 µM.

In the case of `O=C(NCCN1CCCC1)C1CCN(c2nc(-c3ccnc(Nc4c(F)cccc4F)c3)nc3cncc(C4CC4)c23)CC1` [Example 668, 1-{5-Cyclopropyl-2-[2-(2,6-difluoro-phenylamino)-pyridin-4-yl]-pyrido[3,4-d]pyrimidin-4-yl}-piperidine-4-carboxylic acid (2-pyrrolidin-1-yl-ethyl)-amide], the half-maximal inhibitory concentration (IC50) was under 0.1 µM.

Consider `c1cc(-c2nc(N3CCNCC3)c3c(C4CC4)cncc3n2)cc(N[C@@H]2C[C@H]3CC[C@@H]2C3)n1` (racemic) [Example 695, (+/−)-(1RS,2RS,4SR)-Bicyclo[2.2.1]hept-2-yl-[4-(5-cyclopropyl-4-piperazin-1-yl-pyrido[3,4-d]pyrimidin-2-yl)-pyridin-2-yl]-amine], for which the IC50 was under 0.1 µM.

Take “N-[(2S)-2-amino- 3-phenylpropyl]- 8-(furan-3-yl)-2- (pyridin-4-yl)- pyrido[3,4-d]- pyrimidin-4- amine [Example 113]”: the IC50 lay in the range of 0.1 to 1 µM.

`COc1cncc2nc(-c3ccncc3)nc(N3CCNC(CC#N)C3)c12` (stereo not shown) [Example 58, 2-{4-[5-methoxy-2-(pyridin-4-yl)-pyrido[3,4-d]-pyrimidin-4-yl]-piperazin-2-yl]-acetonitrile]: the IC50 lay within 0.1 to 1 µM.

As for `CC(C)(C)c1cc2c(-c3nc(N4CCNCC4)c4c(C5CCC5)cncc4n3)ccnc2[nH]1` [Example 2010, 2-(2-tert-Butyl-1H-pyrrolo[2,3-b]pyridin-4-yl)-5-cyclobutyl-4-piperazin-1-yl-pyrido[3,4-d]pyrimidine], the concentration for half-maximal inhibition (IC50) was under 0.1 µM.

With `COc1cncc2nc(-c3ccnc(Nc4c(F)cccc4F)c3)nc(N3CCNCC3)c12` [Example 421, (2,6-Difluoro-phenyl)-[4-(5-methoxy-4-piperazin-1-yl-pyrido[3,4-d]pyrimidin-2-yl)-pyridin-2-yl]-amine], the IC50 was under 0.1 µM.

With `O[C@@H]1Cc2ccccc2[C@@H]1Nc1cc(-c2nc(N3CCNCC3)c3c(C4CC4)cncc3n2)ccn1` [Example 2140, (1S,2R)-1-[4-(5-Cyclopropyl-4-piperazin-1-yl-pyrido[3,4-d]pyrimidin-2-yl)-pyridin-2-ylamino]-indan-2-ol], the IC50 was under 0.1 µM.

Take `c1ccc(C[C@H]2CN(c3nc(-c4ccnc5[nH]ccc45)nc4cncc(C5CC5)c34)CCN2)cc1` [Example 1219, 4-((S)-3-Benzyl-piperazin-1-yl)-5-cyclopropyl-2-(1H-pyrrolo[2,3-b]pyridin-4-yl)-pyrido[3,4-d]pyrimidine]: the IC50 is under 0.1 µM.

As for `NCC1CCN(c2nc(-c3ccnc(Nc4c(F)cccc4F)c3)nc3cncc(C4CC4)c23)CC1` [Example 696, {4-[4-(4-Aminomethyl-piperidin-1-yl)-5-cyclopropyl-pyrido[3,4-d]pyrimidin-2-yl]-pyridin-2-yl}-(2,6-difluoro-phenyl)-amine], the half-maximal inhibitory concentration (IC50) was under 0.1 µM.

In the case of `Cc1ccc(F)c(Nc2cc(-c3nc(N4CCNCC4)c4c(C5CC5)cncc4n3)ccn2)c1F` [Example 557, [4-(5-Cyclopropyl-4-piperazin-1-yl-pyrido[3,4-d]pyrimidin-2-yl)-pyridin-2-yl]-(2,6-difluoro-3-methyl-phenyl)-amine], the IC50 is under 0.1 µM.

Turning to `c1cncc(Nc2cc(-c3nc(N[C@@H]4CCNC4)c4ccncc4n3)ccn2)c1` [Example 376, {2-[2-(Pyridin-3-ylamino)-pyridin-4-yl]-pyrido[3,4-d]pyrimidin-4-yl}-(R)-pyrrolidin-3-yl-amine], the IC50 was 0.1 to 1 µM.

As to `COc1cncc2nc(-c3ccnc(Nc4cccc(F)c4F)c3)nc(N3CCNCC3)c12` [Example 439, (2,3-Difluoro-phenyl)-[4-(5-methoxy-4-piperazin-1-yl-pyrido[3,4-d]pyrimidin-2-yl)-pyridin-2-yl]-amine], the IC50 was under 0.1 µM.

For the compound `CN(C)CCNC(=O)C1CCN(c2nc(-c3ccnc(Nc4c(F)cccc4F)c3)nc3cncc(C4CC4)c23)CC1` [Example 736, 1-{5-Cyclopropyl-2-[2-(2,6-difluoro-phenylamino)-pyridin-4-yl]-pyrido[3,4-d]pyrimidin-4-yl}-piperidine-4-carboxylic acid (2-dimethylamino-ethyl)-amide], the IC50 was under 0.1 µM.

Turning to `N[C@H](CNc1nc(-c2ccncc2)nc2c(-c3ccc(Cl)cc3)nccc12)Cc1ccccc1` [Example 103, N-[(2S)-2-amino-3-phenylpropyl]-8-(4-chloro-phenyl)-2-(pyridin-4-yl)-pyrido[3,4-d]-pyrimidin-4-amine], the IC50 lay within 0.1 to 1 µM.
